The record followed here is ChEMBL document CHEMBL1649130, “In vitro activity of Iclaprim against respiratory and bacteremic isolates of Streptococcus pneumoniae” (Antimicrob Agents Chemother, 2009).

≈ marks a conversion by molar mass, not a printed value.

For data set [1], the system named is Streptococcus pneumoniae. Put plainly: Antimicrobial activity against Streptococcus pneumoniae assessed as resistant isolates broth microdilution method. Format: functional. (In general: Dilution methods test growth across graded concentrations, often in twofold steps.)
In data set [2] the test system is Streptococcus pneumoniae. The experiment in a line: Antimicrobial activity against compound-susceptible Streptococcus pneumoniae by broth microdilution method.
The test system of data set [3] is Streptococcus pneumoniae. Put plainly: Antimicrobial activity against compound-intermediate Streptococcus pneumoniae by broth microdilution method.
For data set [4], the system named is Streptococcus pneumoniae. The experiment in a line: Antimicrobial activity against compound-resistant Streptococcus pneumoniae by broth microdilution method.
The nature of data set [5]: Drug concentration in epithelial lining fluid of patient with Streptococcus pneumoniae infections at 1.6 mg/kg, iv administered as single 60 mins infusion measured after 3 to 4 hrs. Further details: dose 1.6 mg/kg, route intravenous. The conditions noted are these: human, in vivo. Format: ADME, organism-based.
For data set [6], the system named is Streptococcus pneumoniae. Put plainly: Antimicrobial activity against penicillin-susceptible Streptococcus pneumoniae by broth microdilution method. Format: functional.
Data set [7] is described as follows: Drug concentration in epithelial lining fluid of patient with Streptococcus pneumoniae infections at 1.6 mg/kg, iv administered as single 60 mins infusion measured after 5.5 to 7 hrs. Format: ADME, organism-based. Further details: dose 1.6 mg/kg, route intravenous. To be noted: human, in vivo.
The nature of data set [8]: Drug concentration in alveolar macrophages of patient with Streptococcus pneumoniae infections at 1.6 mg/kg, iv administered as single 60 mins infusion measured after 3 to 4 hrs. Format: ADME, organism-based, Macrophage. Further details: dose 1.6 mg/kg, route intravenous. The conditions noted are these: human, in vivo.
Data set [9] concerns Streptococcus pneumoniae. Put plainly: Antimicrobial activity against Ciprofloxacin-susceptible Streptococcus pneumoniae by broth microdilution method. Format: functional.
The test system of data set [10] is Streptococcus pneumoniae. The experiment in a line: Antimicrobial activity against Doxycycline-susceptible Streptococcus pneumoniae by broth microdilution method. Format: functional.
The nature of data set [11]: Drug concentration in epithelial lining fluid of patient with Streptococcus pneumoniae infections at 1.6 mg/kg, iv administered as single 60 mins infusion measured after 1 to 2 hrs. Format: ADME, organism-based. Set-up: dose 1.6 mg/kg, route intravenous. To be noted: human, in vivo.
The nature of data set [12]: Drug concentration in alveolar macrophages of patient with Streptococcus pneumoniae infections at 1.6 mg/kg, iv administered as single 60 mins infusion measured after 5.5 to 7 hrs. Format: ADME, organism-based, Macrophage. Set-up: dose 1.6 mg/kg, route intravenous. The conditions noted are these: human, in vivo.
Data set [13] has as its system Streptococcus pneumoniae. The experiment in a line: Antimicrobial activity against SXT-susceptible Streptococcus pneumoniae by broth microdilution method. Format: functional.
Data set [14] is described as follows: Drug concentration in alveolar macrophages of patient with Streptococcus pneumoniae infections at 1.6 mg/kg, iv administered as single 60 mins infusion measured after 1 to 2 hrs. Format: ADME, organism-based, Macrophage. Further details: dose 1.6 mg/kg, route intravenous. The conditions noted are these: human, in vivo.
The mark [15] stands for this setting: Streptococcus pneumoniae, read-out: MIC50.

Take `CC[C@H]1OC(=O)[C@H](C)[C@@H](O[C@H]2C[C@@](C)(OC)[C@@H](O)[C@H](C)O2)[C@H](C)[C@@H](O[C@@H]2O[C@H](C)C[C@H](N(C)C)[C@H]2O)[C@](C)(OC)C[C@@H](C)C(=O)[C@H](C)[C@@H](O)[C@]1(C)O` [CLARITHROMYCIN]: the Activity in the data set with Streptococcus pneumoniae [1] is listed as 11.8%.
On the same count and under the same terms, the value for `CC1(C)S[C@@H]2[C@H](NC(=O)Cc3ccccc3)C(=O)N2[C@H]1C(=O)O` [PENICILLIN G] was 6.8%.
As for `O=C(O)c1cn(C2CC2)c2cc(N3CCNCC3)c(F)cc2c1=O` [CIPROFLOXACIN], the figures for the MIC in the data set on Streptococcus pneumoniae [2], with Streptococcus pneumoniae [3] and against Streptococcus pneumoniae [4] were no more than 1 µg/mL, 2 µg/mL (≈ 6.04 µM) and no less than 4 µg/mL, respectively. The Activity in the data set on Streptococcus pneumoniae [1] came out at 1.7%.
As to `C[C@H]1c2cccc(O)c2C(=O)C2=C(O)[C@]3(O)C(=O)C(C(N)=O)=C(O)[C@@H](N(C)C)[C@@H]3[C@@H](O)[C@@H]21.O` [DOXYCYCLINE], the Activity in the data set on Streptococcus pneumoniae [1] is recorded as 0.9%.
`COc1cc(Cc2cnc(N)nc2N)c2c(c1OC)OC(C1CC1)C=C2` (stereo unspecified) [ICLAPRIM]: the Drug uptake in data set [5] was 6.38 µg/mL; in data set [7], 2.66 µg/mL; in [8] it was 7.16 µg/mL; in data set [11] it was 12.61 µg/mL; in data set [12] it was 5.28 µg/mL; in data set [14], 24.5 µg/mL. Further, the MIC50 was 0.06 µg/mL (≈ 0.169 µM) in the data set with Streptococcus pneumoniae [6]; no more than 0.03 µg/mL in the data set with Streptococcus pneumoniae [6] (setting [15]); 0.06 µg/mL (≈ 0.169 µM) in the data set with Streptococcus pneumoniae [9]; no more than 0.03 µg/mL in the data set on Streptococcus pneumoniae [9] (setting [15]); 0.06 µg/mL (≈ 0.169 µM) with Streptococcus pneumoniae [10]; no more than 0.03 µg/mL in the data set with Streptococcus pneumoniae [10] (setting [15]). The results for the MIC50 against Streptococcus pneumoniae [13] and in the data set on Streptococcus pneumoniae [13] (setting [15]) were 0.06 µg/mL (≈ 0.169 µM) and no more than 0.03 µg/mL, respectively.

In general, MIC refers to the smallest concentration in the dilution series that meets the test's criterion for growth inhibition. A high value points to a need for much substance. As usually defined, the MIC50 is an inhibitory concentration at the 50% level, which refers to growth in some studies and to a panel of isolates in others.
